Laboratory results taken from ChEMBL document CHEMBL1201862, “PubChem BioAssay data set” (2004).
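Each compound was tested at five concentrations against cells in 96-well plates for 48 hours. GI50 = concentration required for 50% inhibition of growth.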 Activity calls are given as the source filed them. Cut-off read from the data, not from the text of the source: active = GI50 up to about 1.1 µM and inactive = higher.

How the values were obtained:
Assay in all cases: growth of human tumour cells (NCI), 48 h
HT-29 = test system: HT-29
HL-60 = test system: HL-60
Malme-3M = test system: Malme-3M
UO-31 = test system: UO-31
LOX IMVI = test system: LOX IMVI
MCF7 = test system: MCF7
MDA-N = test system: MDA-N
SF-539 = test system: SF-539
SNB-19 = test system: SNB-19
SF-268 = test system: SF-268
COLO 205 = test system: COLO 205
MDA-MB-435 = test system: MDA-MB-435
HCT-15 = test system: HCT-15
CCRF-CEM = test system: CCRF-CEM
K562 = test system: K562
HCC 2998 = test system: HCC 2998
CAKI-1 = test system: CAKI-1
OVCAR-3 = test system: OVCAR-3
HOP-62 = test system: HOP-62
SK-OV-3 = test system: SK-OV-3

Structure (SMILES)	GI50 (HT-29)	GI50 (HL-60)	GI50 (Malme-3M)	GI50 (UO-31)	GI50 (LOX IMVI)	GI50 (MCF7)	GI50 (MDA-N)	GI50 (SF-539)	GI50 (SNB-19)	GI50 (SF-268)	GI50 (COLO 205)	GI50 (MDA-MB-435)	GI50 (HCT-15) [µM]	GI50 (CCRF-CEM)	GI50 (K562)	GI50 (HCC 2998)	GI50 (CAKI-1)	GI50 (OVCAR-3)	GI50 (HOP-62)	GI50 (SK-OV-3)
COc1cc(C2C3=C(COC3=O)Oc3cc4c(cc32)OCO4)cc(OC)c1OC(C)=O (stereo unspecified)	0.0262 µM (active)	< 0.0104 µM (active)	< 0.0215 µM (active)	< 0.0124 µM (active)	0.0331 µM (active)	< 0.012 µM (active)	< 0.01 µM (active)	< 0.01 µM (active)	0.024 µM (active)	0.0608 µM (active)	0.027 µM (active)	< 0.01 µM (active)	0.0226	0.0258 µM (active)	0.0122 µM (active)	0.0547 µM (active)	< 0.01 µM (active)	0.0197 µM (active)	0.0157 µM (active)	
CCN1C(=O)C(C)S/C1=N\NC(=O)CSc1nc2ccccc2c(=O)n1CC (stereo unspecified)		> 100 µM (inactive)	> 100 µM (inactive)	72.9 µM (inactive)	> 100 µM (inactive)	> 100 µM (inactive)	> 100 µM (inactive)	> 100 µM (inactive)	> 100 µM (inactive)	90.6 µM (inactive)	> 100 µM (inactive)	> 100 µM (inactive)	> 100	> 100 µM (inactive)	98.6 µM (inactive)	> 100 µM (inactive)	> 100 µM (inactive)	> 100 µM (inactive)	> 100 µM (inactive)	> 100 µM (inactive)
Nc1ccc(Oc2ccc(C3(c4ccc(Oc5ccc(N)c(O)c5)cc4)C4CC5C6CC7CC5C3C(C7)C6C4)cc2)cc1O	1.91 µM (inactive)	2.44 µM (inactive)	3.23 µM (inactive)	2.04 µM (inactive)	2.1 µM (inactive)	1.69 µM (inactive)	1.36 µM (inactive)	2.61 µM (inactive)	3.3 µM (inactive)	2.72 µM (inactive)	2.37 µM (inactive)	1.53 µM (inactive)	2.4	16 µM (inactive)	2.19 µM (inactive)	1.85 µM (inactive)	2.49 µM (inactive)	1.52 µM (inactive)	1.73 µM (inactive)	
O=C(O/N=c1/ccc(=O)/c(=N\OC(=O)c2ccccc2)c1=O)c1ccccc1	> 100 µM (inactive)	0.857 µM (active)		> 100 µM (inactive)	> 100 µM (inactive)	1.81 µM (inactive)	> 100 µM (inactive)	> 100 µM (inactive)	76.2 µM (inactive)	> 100 µM (inactive)	> 100 µM (inactive)	53.6 µM (inactive)	> 100	33 µM (inactive)	39.4 µM (inactive)	> 100 µM (inactive)	> 100 µM (inactive)	> 100 µM (inactive)	> 100 µM (inactive)	> 100 µM (inactive)
COc1cc2oc(-c3ccc4c(c3)OCO4)c(OC)c(=O)c2c(O)c1OC	> 50 µM (inactive)	> 50 µM (inactive)	> 50 µM (inactive)	> 50 µM (inactive)	> 50 µM (inactive)	> 50 µM (inactive)	> 50 µM (inactive)	> 50 µM (inactive)	> 50 µM (inactive)	29.4 µM (inactive)	> 50 µM (inactive)	26.9 µM (inactive)	> 50	> 50 µM (inactive)	27.9 µM (inactive)	> 50 µM (inactive)	> 50 µM (inactive)	> 50 µM (inactive)	15.7 µM (inactive)	> 50 µM (inactive)
O=C(O)C(NCc1ccccc1)C(NCc1ccccc1)C(=O)O (stereo unspecified)	> 100 µM (inactive)	> 100 µM (inactive)	> 100 µM (inactive)	> 100 µM (inactive)	> 100 µM (inactive)	> 100 µM (inactive)	> 100 µM (inactive)	> 100 µM (inactive)	> 100 µM (inactive)	> 100 µM (inactive)	> 100 µM (inactive)	> 100 µM (inactive)	> 100	> 100 µM (inactive)	> 100 µM (inactive)	> 100 µM (inactive)	> 100 µM (inactive)	> 100 µM (inactive)	> 100 µM (inactive)	> 100 µM (inactive)
C/C(=N\NC(=O)c1ccc(Cl)cc1)c1nc2cccnc2[nH]1	45.9 µM (inactive)	32.7 µM (inactive)	14.2 µM (inactive)	26.7 µM (inactive)	12.2 µM (inactive)	30.2 µM (inactive)	30.5 µM (inactive)	18.2 µM (inactive)	18.9 µM (inactive)	17.1 µM (inactive)	30.5 µM (inactive)	25.2 µM (inactive)	11.7	10.4 µM (inactive)	42.6 µM (inactive)	> 100 µM (inactive)	28.8 µM (inactive)	22.9 µM (inactive)	32.7 µM (inactive)	20.4 µM (inactive)
